In the supplement of paper PMC10307832:

Columns and labels:
Test in all cases: relative viability (nuclei count vs DMSO), 5 days (fraction); higher = more cells survive
[1] = compound: CC1=CC(=NN1)NC2=CC(=NC(=N2)/C=C/C3=CC=CC=C3)N4CCN(CC4)C + NC(=O)Nc1cc(-c2cccc(F)c2)sc1C(=O)N[C@H]1CCCNC1 [AZD7762] (partner 0.2 µM)
Method in brief: (§1)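 One day after seeding in 1536-well plates, lung cancer cell lines were dosed by pin tool. Dosing was either single-drug or a fixed anchor-drug dose plus five library-drug doses (not always all listed) in √10 steps. After 5 days, nuclei were stained in one fix-and-stain step and counted on 4× images, and relative viability is the nuclei count of treated wells over that of vehicle wells, given as the median of duplicate plates.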

Obatoclax + Foretinib = compound: COC1=CC(c2cc3ccccc3[nH]2)=N/C1=C\c1[nH]c(C)cc1C [Obatoclax] + COc1cc2c(Oc3ccc(NC(=O)C4(C(=O)Nc5ccc(F)cc5)CC4)cc3F)ccnc2cc1OCCCN1CCOCC1 [Foretinib] (partner 0.25 µM)
Method in brief: as §1

Obatoclax + Pemetrexed = compound: COC1=CC(c2cc3ccccc3[nH]2)=N/C1=C\c1[nH]c(C)cc1C [Obatoclax] + Nc1nc2[nH]cc(CCc3ccc(C(=O)N[C@@H](CCC(=O)O)C(=O)O)cc3)c2c(=O)[nH]1 [Pemetrexed] (partner 0.2 µM)
Method in brief: as §1

Bortezomib + Palbociclib = compound: CC(C)C[C@H](NC(=O)[C@H](Cc1ccccc1)NC(=O)c1cnccn1)B(O)O [Bortezomib] + CC(=O)c1c(C)c2cnc(Nc3ccc(N4CCNCC4)cn3)nc2n(C2CCCC2)c1=O [Palbociclib] (partner 0.5 µM)
Method in brief: as §1

Cell Line | relative viability ([1]; first compound 0.08 µM) | relative viability ([1]; first compound 0.253 µM) | relative viability ([1]; first compound 0.8 µM) | relative viability ([1]; first compound 2.53 µM) | relative viability ([1]; first compound 8 µM) | relative viability (Obatoclax + Foretinib; first compound 0.01 µM) | relative viability (Obatoclax + Foretinib; first compound 0.03162 µM) | relative viability (Obatoclax + Foretinib; first compound 0.1 µM) | relative viability (Obatoclax + Foretinib; first compound 0.3162 µM) | relative viability (Obatoclax + Foretinib; first compound 1 µM) | relative viability (Obatoclax + Pemetrexed; first compound 0.01 µM) | relative viability (Obatoclax + Pemetrexed; first compound 0.03162 µM) | relative viability (Obatoclax + Pemetrexed; first compound 0.1 µM) | relative viability (Obatoclax + Pemetrexed; first compound 0.3162 µM) | relative viability (Obatoclax + Pemetrexed; first compound 1 µM) | relative viability (Bortezomib + Palbociclib; first compound 0.0002 µM) | relative viability (Bortezomib + Palbociclib; first compound 0.000632 µM) | relative viability (Bortezomib + Palbociclib; first compound 0.002 µM) | relative viability (Bortezomib + Palbociclib; first compound 0.006325 µM) | relative viability (Bortezomib + Palbociclib; first compound 0.02 µM)
LOU-NH91 | 0.782 | 0.834 | 0.733 | 0.518 | 0.336 | 0.918 | 0.917 | 0.787 | 0.904 | 0.819 | 0.334 | 0.382 | 0.323 | 0.379 | 0.47 | 0.512 | 0.523 | 0.383 | 0.32 | 0.302
SK-MES-1 |  |  |  |  |  | 0.935 | 1.03 | 0.831 | 0.833 | 0.867 | 1.02 | 0.904 | 0.874 | 0.776 | 0.292 | 0.317 | 0.321 | 0.296 | 0.159 | 0.179
LCLC-103H | 0.746 | 0.807 | 0.775 | 0.723 | 0.576 | 0.792 | 0.698 | 0.778 | 0.668 | 0.8 | 0.461 | 0.487 | 0.379 | 0.519 | 0.528 | 0.475 | 0.462 | 0.419 | 0.324 | 0.254
IA-LM |  |  |  |  |  | 1.17 | 1.18 | 1.03 | 0.624 | 0.0739 |  |  |  |  |  |  |  |  |  | 
Calu-6 |  |  |  |  |  | 0.901 | 0.739 | 0.927 | 0.919 | 0.321 |  |  |  |  |  |  |  |  |  | 
SK-LU-1 |  |  |  |  |  | 0.775 | 0.855 | 0.804 | 0.409 | 0.357 | 0.861 | 0.984 | 0.937 | 0.759 | 0.415 | 0.387 | 0.361 | 0.359 | 0.279 | 0.158
NCI-H2023 |  |  |  |  |  | 0.944 | 0.841 | 0.804 | 0.804 | 0.316 | 0.3 | 0.217 | 0.24 | 0.188 | 0.134 | 0.303 | 0.345 | 0.332 | 0.0803 | 0.0773
NCI-H1650 |  |  |  |  |  | 1.12 | 1.06 | 1.18 | 0.91 | 0.558 | 0.397 | 0.356 | 0.361 | 0.377 | 0.331 | 0.342 | 0.312 | 0.136 | 0.117 | 0.146
SW 1573 |  |  |  |  |  | 0.866 | 0.732 | 0.816 | 0.81 | 0.6 | 0.824 | 0.938 | 0.887 | 0.427 | 0.196 | 0.346 | 0.419 | 0.171 | 0.055 | 0.0399
NCI-H661 |  |  |  |  |  | 0.977 | 1.03 | 1.05 | 0.936 | 0.763 | 0.883 | 0.975 | 0.933 | 0.874 | 0.848 | 0.4 | 0.409 | 0.434 | 0.284 | 0.203
NCI-H2228 |  |  |  |  |  | 0.851 | 0.867 | 0.861 | 0.759 | 0.511 | 0.317 | 0.308 | 0.367 | 0.304 | 0.274 | 0.587 | 0.843 | 0.72 | 0.0946 | 0.0943
